Assay results: PubChem BioAssay (NCI)
Several values for one entry are separate records, joined by “and”; a condition that tells them apart may be missing. Equal values may be shown once.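 Where inhibition never reached the appropriate level, the endpoint shown equals the highest concentration tested. Otherwise, values were interpolated linearly from a five-concentration, 48-hour dose response in 96-well plates. GI50 is the concentration that inhibits growth by half. At the TGI there is no net growth.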

Tested on: MDA-MB-468 breast
Assay: growth of human tumour cells (NCI), 48 h

Row | Compound | GI50 | TGI
1 | NC(CSC(c1ccccc1)(c1ccccc1)c1ccccc1)C(=O)O (stereo not given) | 406 nM | 6240 nM
2 | Cc1cc(NC(=O)NCCOc2ccc(N3C(N)=NC(N)=NC3(C)C)cc2Cl)ccc1S(=O)(=O)F | 1460 nM | 27600 nM
3 | CCc1nc(N)nc(N)c1C#CC(C)c1ccc(-c2ccncc2)cc1Cl (stereo not given) | – | 1570 nM and 6460 nM
4 | COc1ccc(-n2nc(C)c3c(Nc4ccc(NC(=O)Nc5cccc(C(F)(F)F)c5)cc4)ncnc32)cc1 | 2020 nM | 4900 nM
5 | Cc1cccc(N2CCN(C3=C(Cl)C(=O)c4ncccc4C3=O)CC2)c1 | 1540 nM | 3080 nM
6 | Nc1c(C(=O)c2cccc(-c3cccnc3)c2)cnn1-c1ccc(F)cc1 | > 25000 nM | > 25000 nM
7 | O=C(O)CCCN1C(=O)/C(=C/C(Cl)=C/c2ccccc2)SC1=S | 1180 nM | 3290 nM
8 | O=C1/C(=C/c2ccc(F)cc2)COc2ccc(O)c(O)c21 | 2280 nM | 5600 nM
9 | COc1cc2c(O[C@@H]3OC[C@H](OC(C)=O)[C@H](OC(C)=O)[C@H]3O)c3c(c(-c4ccc5c(c4)OCO5)c2cc1OC)C(=O)OC3 | 731 nM | > 10000 nM
10 | O=C(CCN1CCCC1)Nc1ccc2c(Nc3ccc(F)cc3)c3ccccc3nc2c1 | 1260 nM | 2800 nM
11 | O=C(CSSCC(=O)c1ccc(Cl)cc1)c1ccc(Cl)cc1 | 2260 nM | 5980 nM
12 | CCN1C(=O)N(CC)C2C1NN=c1s/c(=C3\C(=O)Nc4ccccc43)c(=O)n12 (stereo not given) | 297 nM | 2820 nM
13 | CN(C)Cc1ccc(NC(=O)c2cncc(C#Cc3cnc(N)c4ncccc34)c2)cc1C(F)(F)F | 1560 nM | 3210 nM
14 | COc1ccc(Cn2cc3c(c2-c2ccccc2)CCc2cnoc2-3)cc1 | 79.5 nM | > 100000 nM
15 | COc1ccc(CCN2CCCn3c2nc2ccccc2c3=O)cc1 | 39.2 nM | 43900 nM
16 | CN[C@@H](C)C(=O)N[C@H](C(=O)N1CCC[C@H]1c1nc(C(=O)c2ccc(F)cc2)cs1)C1CCCCC1 | 591 nM | 20300 nM
17 | CCN(Cc1ccc(Cl)c(Cl)c1)c1ccc2nc(N)nc(N)c2c1C | 13.8 nM | 1300 nM

Row | Compound | GI50 | TGI
18 | COc1ccc(-c2nc(NC(=O)CS(=O)(=O)c3ccc(F)cc3)sc2C)cc1 | 7050 nM | 53800 nM
19 | CC(=O)CC[N+](C)(C)C | 1750 nM | 4390 nM
20 | COc1ccc(/C=C\c2cc(OC)c(OC)c(OC)c2)cc1NC(=O)/C=C/c1ccc(OC)c(OC)c1 | 1900 nM | > 100000 nM
21 | O=C1c2c(c3c4cc(F)ccc4oc3c3[nH]c4ccccc4c23)C(=O)N1O | 2140 nM | 7930 nM
22 | CNC(=O)c1c(NC(=O)c2ccccc2C(F)(F)F)sc2c1CCC(=O)C2 | 1810 nM | 5360 nM
23 | COC(=O)CNC(=O)C(=O)c1c(O)c(O)c(C(C)C)c2cc(C)c(-c3c(C)cc4c(C(C)C)c(O)c(O)c(C(=O)C(=O)NCC(=O)OC)c4c3O)c(O)c12 | 1460 nM | 4800 nM
24 | O=[N+]([O-])c1ccc(Sc2cccc[n+]2[O-])c2nonc12 | 5780 nM | 20700 nM
25 | O=[N+]([O-])c1ccccc1/C=N\NC(=S)N/N=C/c1ccccc1[N+](=O)[O-] | 1400 nM | 21300 nM
26 | Cc1cccc(CNc2c3ccccc3nc3ccccc23)c1 | 1580 nM | 3630 nM
27 | C[C@H]1C[C@@H](n2c(Nc3ccc(OC(F)(F)F)cc3)nc3cc(CCC(=O)O)ccc32)CC(C)(C)C1 | 15700 nM | 38600 nM
28 | O=C(CSc1nc2ccccc2c(=O)n1-c1ccc(Cl)cc1)N/N=C/c1ccc(Oc2ccc(Cl)cc2)cc1 | 2080 nM | 5080 nM
29 | Cc1ccc(S(=O)(=O)c2nc(-c3ccc(F)cc3)oc2S(C)(=O)=O)cc1 | 2500 nM | > 19800 nM
30 | CN(C)S(=O)(=O)c1cccc(C(=O)Nc2nc(-c3ccc(F)c(F)c3)cs2)c1 | 3790 nM | 97500 nM
31 | CN1CCN(C2=C(Cl)C(=O)c3ccccc3C2=O)CC1 | 1110 nM | 2610 nM
32 | CCCC(=O)Oc1ccc(/C(=C(\C)c2ccc(Cl)cc2)c2ccc(OCCN(CC)CC)cc2)cc1 | 1530 nM | 3670 nM
33 | Nc1[nH]nc(Nc2ccccc2)c1-c1nc2ccccc2s1 | 2230 nM | 5980 nM
